Source: patent publication US8280710B2, “Method for determining thermal stability of collagen or collagen-like peptide” (University of Medicine and Dentistry of New Jersey, priority 2005, dated 2012)
Non-standard residues stand in square brackets, D forms with d. Residues, ends and D or L forms follow the SMILES beside them. Hyp = O=C(O)[C@@H]1C[C@@H](O)CN1

Tests used:
[1] = peptide of Table 3, defined standard conditions
Protocol: The propensity measurements for all 20 amino acid residues in the Xaa1 position in a Gly-Xaa1-Hyp context and all 20 amino acid residues in the Xaa2 position in a Gly-Pro-Xaa2 context were determined by measuring thermal stability of host-guest peptides (Persikov, et al. (2000) supra).
The Tm values of all host-guest peptides were measured under a set of standard conditions, with c=1 mg/ml in phosphate-buffered saline, pH 7.0, and with a heating rate average of 0.1° C./minute (Persikov, et al. (2004) supra).

[2] = Method for predicting global Tm of collagen peptides from amino acid sequence; details: observed minus predicted, peptides of Table 3
Protocol: The global thermal stability of homotrimeric triple helical peptides with length of at least 6 tripeptide units and, in most cases, containing 10 tripeptide units was determined as follows.
For the total number of triplets n in a given peptide, the base Tm^0(n) for (Pro-Hyp-Gly) or (Pro-Pro-Gly)n was calculated from the length dependence (Equation 1), including any effect of blocking groups;
The melting temperature value was decreased for every triplet in the sequence that was not Gly-Pro-Hyp, subtracting a value of ΔTm^GXY (Table 1). The N-terminal and C-terminal tripeptide units were excluded from the calculation due to the staggering of the chains and the disorder for the peptide ends (Bella et al. (1994) supra; Li, et al. (1993) Biochemistry 32:7377-7387; Kramer, et al. (2001) J. Mol. Biol. 301:1191-1205).
The resulting value for the peptide melting temperature was adjusted using the ΔTm^int values for interactions between neighboring tripeptides (Table 2).
The method was formulated as follows.
To extrapolate the dependence of the Tm of the host peptides on peptide length, the experimental values for (Pro-Hyp-Gly)n and (Pro-Pro-Gly)n versus n, where n is the number of tripeptide units, were fit to the exponential decay function
[formula] where Tm^0(n) is defined as the base thermal stability of the repeating polytripeptide standard, Tm^max is the maximum melting temperature, and the constant n0 represents the length of the repeating peptide with Tm=0.

What does the source list for `CC(=O)NCC(=O)N1CCC[C@H]1C(=O)N[C@@H](C)C(=O)NCC(=O)N1CCC[C@H]1C(=O)N[C@@H](C)C(=O)NCC(=O)N1CCC[C@H]1C(=O)N[C@H](C(=O)NCC(=O)N1CCC[C@H]1C(=O)N[C@@H](C)C(=O)NCC(=O)N[C@@H](C)C(=O)N[C@@H](CCCNC(=N)N)C(=O)NCC(=O)N1CCC[C@H]1C(=O)N[C@@H](C)C(=O)NCC(=O)N1CCC[C@H]1C(=O)N1C[C@H](O)C[C@H]1C(=O)NCC(=O)N1CCC[C@H]1C(=O)N1C[C@H](O)C[C@H]1C(=O)NCC(=O)N1CCC[C@H]1C(=O)N1C[C@H](O)C[C@H]1C(=O)NCC(=O)N1CCC[C@H]1C(=O)N1C[C@H](O)C[C@H]1C(=O)NCC(=O)N[C@H](C(N)=O)C(C)C)C(C)C` [T1-892, Ac-GPA-GPA-GPV-GPA-GAR-GPA-(GPO)4-GV-NH2] (Ac-GPAGPAGPVGPAGARGPAGP[Hyp]GP[Hyp]GP[Hyp]GP[Hyp]GV-NH2)?
Tm^obs [1]: 26.0 °C; ΔTm [2]: −2.2 °C

Which “Tm^obs” value [1] does the source give for `CC(=O)NCC(=O)N1CCC[C@H]1C(=O)N1C[C@H](O)C[C@H]1C(=O)NCC(=O)N1CCC[C@H]1C(=O)N1C[C@H](O)C[C@H]1C(=O)NCC(=O)N[C@@H](CCCNC(=N)N)C(=O)N1C[C@H](O)C[C@H]1C(=O)NCC(=O)N[C@@H](CCCCN)C(=O)N[C@@H](CCCNC(=N)N)C(=O)NCC(=O)N[C@@H](CCCCN)C(=O)N[C@@H](CCC(N)=O)C(=O)NCC(=O)N[C@@H](CCC(N)=O)C(=O)N[C@@H](CCCCN)C(=O)NCC(=O)N1CCC[C@H]1C(=O)N1C[C@H](O)C[C@H]1C(=O)NCC(=O)N1CCC[C@H]1C(=O)N1C[C@H](O)C[C@H]1C(=O)NCC(=O)N1CCC[C@H]1C(=O)N1C[C@H](O)C[C@H]1C(=O)NCC(=O)N1CCC[C@H]1C(=O)N1C[C@H](O)C[C@H]1C(=O)NCC(N)=O` [AchE-P231 (r), Ac-GPO-GPO-GRO-GKR-GKQ-GQK-(GPO)4-G-NH2] (Ac-GP[Hyp]GP[Hyp]GR[Hyp]GKRGKQGQKGP[Hyp]GP[Hyp]GP[Hyp]GP[Hyp]G-NH2) here?
The value was 23.9 °C.

What about the ΔTm [2] of the same compound?
Its ΔTm is −1.9 °C.

Which “Tm^obs” value [1] does the source give for `CC(=O)NCC(=O)N1CCC[C@H]1C(=O)N1C[C@H](O)C[C@H]1C(=O)NCC(=O)N1CCC[C@H]1C(=O)N1C[C@H](O)C[C@H]1C(=O)NCC(=O)N[C@@H](CCCNC(=N)N)C(=O)N1C[C@H](O)C[C@H]1C(=O)NCC(=O)N[C@@H](CCCCN)C(=O)N[C@@H](CCCNC(=N)N)C(=O)NCC(=O)N[C@@H](CCCCN)C(=O)N[C@@H](CCC(N)=O)C(=O)NCC(=O)N1CCC[C@H]1C(=O)N1C[C@H](O)C[C@H]1C(=O)NCC(=O)N1CCC[C@H]1C(=O)N1C[C@H](O)C[C@H]1C(=O)NCC(=O)N1CCC[C@H]1C(=O)N1C[C@H](O)C[C@H]1C(=O)NCC(=O)NCC(N)=O` [AchE-HG-C3, Ac-GPO-GPO-GRO-GKR-GKQ-GPO-GPO-GPO-GG-NH2] (Ac-GP[Hyp]GP[Hyp]GR[Hyp]GKRGKQGP[Hyp]GP[Hyp]GP[Hyp]GG-NH2) here?
Its value is 21.3 °C.

What about the ΔTm [2] of the same compound?
Its ΔTm is −2.7 °C.

Which “Tm^obs” value [1] does the source give for `CC(=O)NCC(=O)N1CCC[C@H]1C(=O)N[C@@H](C)C(=O)NCC(=O)N1CCC[C@H]1C(=O)N[C@@H](C)C(=O)NCC(=O)N1CCC[C@H]1C(=O)N[C@H](C(=O)NCC(=O)N1CCC[C@H]1C(=O)N[C@@H](C)C(=O)NCC(=O)N[C@@H](C)C(=O)N[C@@H](CCCNC(=N)N)C(=O)NCC(=O)N1CCC[C@H]1C(=O)N[C@@H](C)C(=O)NCC(=O)N1CCC[C@H]1C(=O)N1C[C@H](O)C[C@H]1C(=O)NCC(=O)N1CCC[C@H]1C(=O)N[C@@H](C)C(=O)NCC(=O)N1CCC[C@H]1C(=O)N1C[C@H](O)C[C@H]1C(=O)NCC(=O)N1CCC[C@H]1C(=O)N1C[C@H](O)C[C@H]1C(=O)NCC(=O)N[C@H](C(N)=O)C(C)C)C(C)C` [T1-892 (O24A), Ac-(GPA)2-GPV-GPA-GAR-GPA-GPO-GPA-(GPO)2-GV-NH2] (Ac-GPAGPAGPVGPAGARGPAGP[Hyp]GPAGP[Hyp]GP[Hyp]GV-NH2) here?
The value was 23.2 °C.

And the ΔTm [2]?
Its ΔTm is 1.4 °C.

For `CC(=O)NCC(=O)N1CCC[C@H]1C(=O)N1C[C@H](O)C[C@H]1C(=O)NCC(=O)N1CCC[C@H]1C(=O)N1C[C@H](O)C[C@H]1C(=O)NCC(=O)N1CCC[C@H]1C(=O)N1C[C@H](O)C[C@H]1C(=O)NCC(=O)N[C@@H](CCCNC(=N)N)C(=O)N[C@@H](CCCCN)C(=O)NCC(=O)N[C@@H](CCCNC(=N)N)C(=O)N1C[C@H](O)C[C@H]1C(=O)NCC(=O)N1CCC[C@H]1C(=O)N1C[C@H](O)C[C@H]1C(=O)NCC(=O)N1CCC[C@H]1C(=O)N1C[C@H](O)C[C@H]1C(=O)NCC(=O)N1CCC[C@H]1C(=O)N1C[C@H](O)C[C@H]1C(=O)NCC(=O)NCC(N)=O` [AchE-HG-N1, Ac-GPO-GPO-GPO-GRK-GRO-GPO-GPO-GPO-GG-NH2] (Ac-GP[Hyp]GP[Hyp]GP[Hyp]GRKGR[Hyp]GP[Hyp]GP[Hyp]GP[Hyp]GG-NH2), which “Tm^obs” value [1] is on record?
The value was 22.2 °C.

And the ΔTm [2]?
Its ΔTm is −0.6 °C.

With `CC[C@H](C)[C@H](NC(=O)CNC(=O)[C@@H]1C[C@@H](O)CN1C(=O)[C@H](CCCCN)NC(=O)CNC(=O)[C@@H]1C[C@@H](O)CN1C(=O)[C@H](CCC(=O)O)NC(=O)CNC(=O)[C@H](C)NC(=O)[C@H](CC(C)C)NC(=O)CNC(C)=O)C(=O)N1C[C@H](O)C[C@H]1C(=O)NCC(=O)N[C@@H](CC(C)C)C(=O)N1C[C@H](O)C[C@H]1C(=O)NCC(=O)N[C@@H](CCCNC(=N)N)C(=O)N[C@@H](C)C(=O)NCC(=O)N1CCC[C@H]1C(=O)N1C[C@H](O)C[C@H]1C(=O)NCC(=O)N1CCC[C@H]1C(=O)N1C[C@H](O)C[C@H]1C(=O)NCC(=O)N1CCC[C@H]1C(=O)N1C[C@H](O)C[C@H]1C(=O)NCC(=O)N1CCC[C@H]1C(=O)N1C[C@H](O)C[C@H]1C(=O)NCC(=O)N[C@H](C(N)=O)C(C)C` [T7-2031, Ac-GLA-GEO-GKO-GIO-GLO-GRA-(GPO)4-GV-NH2] (Ac-GLAGE[Hyp]GK[Hyp]GI[Hyp]GL[Hyp]GRAGP[Hyp]GP[Hyp]GP[Hyp]GP[Hyp]GV-NH2) as the compound, how does the “Tm^obs” value [1] read?
Its value is 25.4 °C.

What about the ΔTm [2] of the same compound?
The ΔTm was 2.1 °C.

What does the source list for `CC(=O)NCC(=O)N[C@@H](CO)C(=O)N1C[C@H](O)C[C@H]1C(=O)NCC(=O)N[C@@H](C)C(=O)N[C@@H](CCC(N)=O)C(=O)NCC(=O)N[C@@H](CC(C)C)C(=O)N[C@@H](CCC(N)=O)C(=O)NCC(=O)N1CCC[C@H]1C(=O)N[C@@H](CCCNC(=N)N)C(=O)NCC(=O)N[C@@H](CC(C)C)C(=O)N1C[C@H](O)C[C@H]1C(=O)NCC(=O)N[C@H](C(=O)N1C[C@H](O)C[C@H]1C(=O)NCC(=O)N1CCC[C@H]1C(=O)N1C[C@H](O)C[C@H]1C(=O)NCC(=O)N1CCC[C@H]1C(=O)N1C[C@H](O)C[C@H]1C(=O)NCC(=O)N1CCC[C@H]1C(=O)N1C[C@H](O)C[C@H]1C(=O)NCC(=O)N1CCC[C@H]1C(=O)N1C[C@H](O)C[C@H]1C(=O)NCC(=O)N[C@H](C(=O)O)C(C)C)[C@@H](C)O` [T2-508, Ac-GSO-GAQ-GLQ-GPR-GLO-GTO-(GPO)4-GV-OH] (Ac-GS[Hyp]GAQGLQGPRGL[Hyp]GT[Hyp]GP[Hyp]GP[Hyp]GP[Hyp]GP[Hyp]GV-OH)?
Tm^obs [1]: 25.0 °C; ΔTm [2]: 3.9 °C
